Experimental data published in ChEMBL document CHEMBL4004838, “Design and synthesis of novel phenyl -1, 4-beta-carboline-hybrid molecules as potential anticancer agents” (Eur J Med Chem, 2017).

How the values were obtained:
Type in all cases: functional
SK-MEL-28 = assay: Growth inhibition of human SK-MEL-28 cells assessed as cell growth at 10^-5 M incubated for 48 hrs by sulforhodamine B assay relative to control; conditions: SK-MEL-28, 48 h, read-out: Activity
OVCAR-4 = assay: Growth inhibition of human OVCAR4 cells assessed as cell growth at 10^-5 M incubated for 48 hrs by sulforhodamine B assay relative to control; conditions: OVCAR-4, 48 h, read-out: Activity
A549 = assay: Growth inhibition of human A549/ATCC cells assessed as cell growth at 10^-5 M incubated for 48 hrs by sulforhodamine B assay relative to control; conditions: A549, 48 h, read-out: Activity
KM12 = assay: Growth inhibition of human KM12 cells assessed as cell growth at 10^-5 M incubated for 48 hrs by sulforhodamine B assay relative to control; conditions: KM12, 48 h, read-out: Activity
RXF 393 = assay: Growth inhibition of human RXF393 cells assessed as cell growth at 10^-5 M incubated for 48 hrs by sulforhodamine B assay relative to control; conditions: RXF 393, 48 h, read-out: Activity
COLO 205 = assay: Growth inhibition of human COLO205 cells assessed as cell growth at 10^-5 M incubated for 48 hrs by sulforhodamine B assay relative to control; conditions: COLO 205, 48 h, read-out: Activity
SF-268 = assay: Growth inhibition of human SF268 cells assessed as cell growth at 10^-5 M incubated for 48 hrs by sulforhodamine B assay relative to control; conditions: SF-268, 48 h, read-out: Activity
HOP-62 = assay: Growth inhibition of human HOP62 cells assessed as cell growth at 10^-5 M incubated for 48 hrs by sulforhodamine B assay relative to control; conditions: HOP-62, 48 h, read-out: Activity
MOLT-4 = assay: Growth inhibition of human MOLT4 cells assessed as cell growth at 10^-5 M incubated for 48 hrs by sulforhodamine B assay relative to control; conditions: MOLT-4, 48 h, read-out: Activity
DU-145 = assay: Growth inhibition of human DU145 cells assessed as cell growth at 10^-5 M incubated for 48 hrs by sulforhodamine B assay relative to control; conditions: DU-145, 48 h, read-out: Activity
NCI-H23 = assay: Growth inhibition of human NCI-H23 cells assessed as cell growth at 10^-5 M incubated for 48 hrs by sulforhodamine B assay relative to control; conditions: NCI-H23, 48 h, read-out: Activity
SN12C = assay: Growth inhibition of human SN12C cells assessed as cell growth at 10^-5 M incubated for 48 hrs by sulforhodamine B assay relative to control; conditions: read-out: Activity
OVCAR-8 = assay: Growth inhibition of human OVCAR8 cells assessed as cell growth at 10^-5 M incubated for 48 hrs by sulforhodamine B assay relative to control; conditions: OVCAR-8, 48 h, read-out: Activity
UO-31 = assay: Growth inhibition of human UO31 cells assessed as cell growth at 10^-5 M incubated for 48 hrs by sulforhodamine B assay relative to control; conditions: UO-31, 48 h, read-out: Activity
SNB-75 = assay: Growth inhibition of human SNB75 cells assessed as cell growth at 10^-5 M incubated for 48 hrs by sulforhodamine B assay relative to control; conditions: SNB-75, 48 h, read-out: Activity
MDA-MB-435 = assay: Growth inhibition of human MDA-MB-435 cells assessed as cell growth at 10^-5 M incubated for 48 hrs by sulforhodamine B assay relative to control; conditions: MDA-MB-435, 48 h, read-out: Activity
IGROV-1 = assay: Growth inhibition of human IGROV1 cells assessed as cell growth at 10^-5 M incubated for 48 hrs by sulforhodamine B assay relative to control; conditions: IGROV-1, 48 h, read-out: Activity
NCI-H322M = assay: Growth inhibition of human NCI-H322M cells assessed as cell growth at 10^-5 M incubated for 48 hrs by sulforhodamine B assay relative to control; conditions: read-out: Activity
BT-549 = assay: Growth inhibition of human BT549 cells assessed as cell growth at 10^-5 M incubated for 48 hrs by sulforhodamine B assay relative to control; conditions: BT-549, 48 h, read-out: Activity
SK-MEL-5 = assay: Growth inhibition of human SK-MEL-5 cells assessed as cell growth at 10^-5 M incubated for 48 hrs by sulforhodamine B assay relative to control; conditions: SK-MEL-5, 48 h, read-out: Activity
SW-620 = assay: Growth inhibition of human SW620 cells assessed as cell growth at 10^-5 M incubated for 48 hrs by sulforhodamine B assay relative to control; conditions: SW-620, 48 h, read-out: Activity
UACC-257 = assay: Growth inhibition of human UACC257 cells assessed as cell growth at 10^-5 M incubated for 48 hrs by sulforhodamine B assay relative to control; conditions: UACC-257, 48 h, read-out: Activity
RPMI-8226 = assay: Growth inhibition of human RPMI8226 cells assessed as cell growth at 10^-5 M incubated for 48 hrs by sulforhodamine B assay relative to control; conditions: RPMI-8226, 48 h, read-out: Activity
CAKI-1 = assay: Growth inhibition of human Caki1 cells assessed as cell growth at 10^-5 M incubated for 48 hrs by sulforhodamine B assay relative to control; conditions: CAKI-1, 48 h, read-out: Activity
HCT-15 = assay: Growth inhibition of human HCT15 cells assessed as cell growth at 10^-5 M incubated for 48 hrs by sulforhodamine B assay relative to control; conditions: HCT-15, 48 h, read-out: Activity
CCRF-CEM = assay: Growth inhibition of human CCRF-CEM cells assessed as cell growth at 10^-5 M incubated for 48 hrs by sulforhodamine B assay relative to control; conditions: read-out: Activity
SR = assay: Growth inhibition of human SR cells assessed as cell growth at 10^-5 M incubated for 48 hrs by sulforhodamine B assay relative to control; conditions: read-out: Activity

| SMILES | growth at 10 µM (SK-MEL-28) [%] | growth at 10 µM (OVCAR-4) [%] | growth at 10 µM (A549) [%] | growth at 10 µM (KM12) [%] | growth at 10 µM (RXF 393) [%] | growth at 10 µM (COLO 205) [%] | growth at 10 µM (SF-268) [%] | growth at 10 µM (HOP-62) [%] | growth at 10 µM (MOLT-4) [%] | growth at 10 µM (DU-145) [%] | growth at 10 µM (NCI-H23) [%] | growth at 10 µM (SN12C) [%] | growth at 10 µM (OVCAR-8) [%] | growth at 10 µM (UO-31) [%] | growth at 10 µM (SNB-75) [%] | growth at 10 µM (MDA-MB-435) [%] | growth at 10 µM (NCI-H322M) [%] | growth at 10 µM (BT-549) [%] | growth at 10 µM (SK-MEL-5) [%] | growth at 10 µM (SW-620) [%] | also measured |
| --- | --- | --- | --- | --- | --- | --- | --- | --- | --- | --- | --- | --- | --- | --- | --- | --- | --- | --- | --- | --- | --- |
| Cc1ccc(S(=O)(=O)N2CCc3c([nH]c4ccccc34)C2c2ccc(C=O)cc2)cc1 (stereo not drawn) | 86 | 85.8 | 92.8 | 86.8 | 96.4 | 92.1 | 91.3 | 94.3 | 95.9 | 101 | 85.7 | 87.7 | 98.2 | 66.7 | 74 | 93.4 | 87.7 | 77.1 | 89.8 | 90.1 | growth at 10 µM (IGROV-1): 86.5%; growth at 10 µM (UACC-257): 102%; growth at 10 µM (RPMI-8226): 99.1%; growth at 10 µM (CAKI-1): 73.5%; growth at 10 µM (HCT-15): 94.3%; growth at 10 µM (CCRF-CEM): 106%; growth at 10 µM (SR): 97.2% |
| c1ccc2c(c1)[nH]c1c(-c3ccc(-c4nccc5c4[nH]c4ccccc45)cc3)nccc12 | 110 | 105 | 115 | 99.1 | 111 | 92 | 105 | 82.7 | 97 | 122 | 77.7 | 94.5 | 111 | 60.6 | 82.5 | 109 | 104 | 87.6 | 79 | 108 | growth at 10 µM (IGROV-1): 88.8%; growth at 10 µM (UACC-257): 119%; growth at 10 µM (RPMI-8226): 97.4%; growth at 10 µM (HCT-15): 99.7%; growth at 10 µM (CCRF-CEM): 106%; growth at 10 µM (SR): 86% |
| c1ccc2[nH]c(-c3ccc(C4NCCc5c4[nH]c4ccccc54)cc3)nc2c1 (stereo not drawn) | 102 | 97.9 | 82.9 | 103 | 94.2 | 98.3 | 98.6 | 89 | 107 | 113 | 102 | 93.8 | 99.2 | 73.5 | 89 | 101 | 92.8 | 93.2 | 96.5 | 99.1 | growth at 10 µM (RPMI-8226): 97.3%; growth at 10 µM (CAKI-1): 77.5%; growth at 10 µM (HCT-15): 107%; growth at 10 µM (CCRF-CEM): 103%; growth at 10 µM (SR): 119% |
| Cc1n[nH]c2c1C(c1ccc(C3NCCc4c3[nH]c3ccccc43)cc1)C(C#N)=C(N)O2 (stereo not drawn) | 97.1 | 85.7 | 84.9 | 91.9 | 99.2 | 92.4 | 92.9 | 83 | 81.1 | 105 | 87.7 | 87 | 104 | 53.9 | 70.4 | 96.3 | 97.7 | 81.8 | 89.4 | 89.9 | growth at 10 µM (RPMI-8226): 72.1%; growth at 10 µM (CAKI-1): 63.2%; growth at 10 µM (HCT-15): 87.7%; growth at 10 µM (CCRF-CEM): 83.7%; growth at 10 µM (SR): 113% |
| O=Cc1ccc(C2NCCc3c2[nH]c2ccccc32)cc1 (stereo not drawn) | 109 | 97.4 | 94.7 | 107 | 99.6 | 105 | 101 | 86.3 | 95.5 | 110 | 87.1 | 89 | 105 | 61.9 | 77.8 | 107 | 97.6 | 90.1 | 93 | 88.8 | growth at 10 µM (RPMI-8226): 101%; growth at 10 µM (CAKI-1): 72.4%; growth at 10 µM (HCT-15): 101%; growth at 10 µM (CCRF-CEM): 99.3%; growth at 10 µM (SR): 114% |
